Legend:
[1] = Enzyme induced staining of giant vesicles; format: biochemical; conditions: giant POPC vesicles, 9.8 μM dye phosphate, PLAP added
Procedure: Enzyme induced staining of giant vesicles. Giant POPC vesicles were prepared by electroswelling^27,28. 5 μl of a 2 mM lipid solution in diethylether/methanol (9:1, v/v) were applied to a pair of planar electrodes of indium tin oxide coated with 70 nm of silica. After evaporation of the solvent under reduced pressure (0.1 mbar), 2 ml of 300 mM sucrose were added and giant vesicle formation was promoted by applying AC voltage to the electrodes. After formation was complete, vesicles were transferred to 35 mm polypropylene cell culture dishes (BD Biosciences Europe, Le Pont de Claix, France) and diluted in the same buffer. They were used the same day.
For enzyme kinetic measurements at room temperature, 400 μl of the giant vesicle stock solution were transferred to a culture dish containing 3,600 μl buffer (20 mM Tris, 100 mM NaCl, 120 mM Glucose, pH 8.1). […] The fluorescence of a selected giant vesicle with a diameter of 10 to 40 μm was observed using a microscope (Axioskop, Zeiss, Oberkochen, Germany) equipped with a 100 water immersion objective and a b/w CCD camera (Sony ICX 285 Chip, Theta System, Gröbenzell, Germany). […] The fluorescence was detected through the dichroic mirror and a long pass filter (510 nm). […] Images were recorded every 10 or 20 seconds before and after addition of the phosphatase. […]

[2] = system: HEK 293 cells expressing fusion protein of plasma membrane anchor and PLAP; test: Staining of HEK 293 cells through overexpressed membrane-bound phosphatase; format: cell-based
Source text: FIG. 13A to C: Staining of transfected HEK 293 cells with a voltage sensitive dye by activation of binding through an overexpressed, membrane-bound phosphatase. HEK 293 cells were cotransfected with a vector coding for GFP and a vector coding for a fusion protein of a plasma membrane anchor and phosphatase from the human placenta. A. fluorescence image showing the GFP fluoresence of a transfected cell (excitation filter 450/50 nm, emission filter 510 nm longpass; dichroic mirror: 505 nm). B. The voltage sensitive fluorescent dye Di-8-phosphato-ASPBS (cf. FIG. 11, bottom) was added to the incubation medium. […] C. […] The images shown are optimized for contrast and intensity.
(§1) FIG. 16. Genetically Targeted Staining of HEK293 cells with 1 mM Di-10P-ASPBS. A mixture of stable clones either expressing the membrane-bound phosphatase construct or cytosolic GFP were cultured on the same dish. (A) From left to right: (i) Brightfield image of cells. (ii) Fluorescence image of cells showing cells expressing cytosolic GFP (excitation filter 450/50 nm, emission filter 510 nm, dichroic mirror 505 nm). (iii) Cells expressing phosphatase as obtained by subtraction of GFP expressing cells from image i. (iv) Fluorescence image of cells with filters exc. 535/50 nm, em. 610/75 nm; dichroic mirror 535 nm. The image is normalized to the same level as in row B. (v) autoleveled image iv, showing fluorescence crosstalk of GFP. (B) Enzyme induced staining of cells as measured with filter set exc. 535/50 nm, em. 610/75 nm; dichroic mirror 535 nm. The membrane fluorescence increases over time. (C). Inverted and contrast-enhanced fluorescence images corresponding to row B. (D) Difference images. The image A/iv was subtracted from the images in row B. The resulting images were inverted and contrast was enhanced.
as §1, with “17.” for “16.”, “200 nM Di-12P-ASPBS.” for “1 mM Di-10P-ASPBS.”, “difference” for “and contrast-enhanced fluorescence images corresponding to row B. (D) Difference”, “enhanced. (D) Contrast enhanced images of row C.” for “enhanced.”
Enzyme induced staining. The dye precursors Di-10P-ASPBS and Di-12P-ASPBS were used to effect enzyme induced staining on cells. To test whether the staining is selective, a mixture of two cell populations was cultured in the same dish. One of these stably expressed the phosphatase construct, while the other was stably expressing GFP as a negative marker.

| Molecule | ratio of fluorescence intensities F∞/F0 [1] | selectivity of staining among precursor dyes ([2]; HEK293 and MDCK cells overexpressing ArtPlasMA-PLAP, Di-8P, Di-10P, Di-12P compared) | staining intensity and confinement to phosphatase expressing cells ([2]; compared with Di-10P-ASPBS) | enzyme induced membrane staining in mixed cell populations ([2]; phosphatase clones and GFP clones in same dish, 1 mM Di-10P-ASPBS, 200 nM Di-12P-ASPBS) |
| --- | --- | --- | --- | --- |
| CCCCN(CCCC)c1ccc(/C=C/c2cc[n+](CCCOP(=O)([O-])O)cc2)cc1 [Di-4-ASPP phosphate] | 9-13 | – | – | – |
| Di-12-phosphato-ASPBS [Di-12P-ASPBS] | – | best selectivity | distinctly better | allowed enzyme induced membrane staining |

Reference: US7611863B2, “Selective staining of biomembranes using voltage-sensitive dyes” (Max-Planck-Gesellschaft zur Foerderung der Wissenschaften …, priority 2004, dated 2009)
